What all share (type): binding
The target of one assay is T1, GST-HIAP1(cIAP-2) BIR 3 (Homo sapiens, UniProt Q13489).
T1 construct: made in house; host or cells: E. coli DH5-alpha
In words: Fluorescence polarization-based competition assay, cIAP-2 Bir3. How it is done:
GST-HIAP1(cIAP-2) BIR 3: HIAP1 coding sequence from amino acids 236-349, cloned into PGex4T3 via BamH1 and XhoI. The plasmid was transformed into E. coli DH5α for use in protein expression and purification.
(§1) A fluorescent peptide probe, Fmoc-Ala-Val-Pro-Phe-Tyr(t-Bu)-Leu-Pro-Gly(t-Bu)-Gly-OH was prepared using standard Fmoc chemistry on 2-chlorotrityl chloride resin (Int. J. Pept. Prot. Res. 38:555-561, 1991). Cleavage from the resin was performed using 20% acetic acid in dichloromethane (DCM), which left the side chain still blocked. The C-terminal protected carboxylic acid was coupled to 4′-(aminomethyl)fluorescein (Molecular Probes, A-1351; Eugene, Oreg.) using excess diisopropylcarbodiimide (DIC) in dimethylformamide (DMF) at room temperature and was purified by silica gel chromatography (10% methanol in DCM). The N-terminal Fmoc protecting group was removed using piperidine (20%) in DMF, and purified by silica gel chromatography (20% methanol in DCM, 0.5% HOAc). Finally, the t-butyl side chain protective groups were removed using 95% trifluoroacetic acid containing 2.5% water and 2.5% triisopropyl silane. […] Compound #174 was also used as a fluorescent probe in this assay.
(§2) For all assays, the fluorescence and fluorescence-polarization was evaluated using a Tecan Polarion instrument with the excitation filter set at 485 nm and the emission filter set at 535 nm. For each assay, the concentration of the target protein was first establish by titration of the selected protein in order to produce a linear dose-response signal when incubated alone in the presence of the fluorescent probe. Upon establishing these conditions, the compounds potency (IC50) and selectivity, was assessed in the presence of a fix defined-amount of target protein and fluorescent probe and a 10 point serial dilution of the selected compounds. For each IC50 curve, the assays were run as followed: 25 ul/well of diluted compound in 50 mM MES buffer pH 6.5 were added into a black 96 well plate then 25 ul/well of bovine serum albumin (BSA) at 0.5 mg/ml in 50 mM MES pH 6.5. Auto-fluorescence for each compound was first assessed by performing a reading of the compound/BSA solution alone. Then 25 ul of the fluorescein probe diluted into 50 mM MES containing 0.05 mg/ml BSA were added and a reading to detect quenching of fluorescein signal done. Finally 25 ul/well of the target or control protein (GST-BIRs) diluted at the appropriate concentration in 50 mM MES containing 0.05 mg/ml BSA were added and the fluorescence polarization evaluated.
(§3) For each assay the relative polarization-fluorescence units were plotted against the final concentrations of compound and the IC50 calculated using the Grad pad prism software and/or Cambridge soft. The ki value were derived from the calculated IC50 value as described above and according to the equation described in Nikolovska-Coleska, Z. (2004) Anal Biochem 332, 261-273.
(§4) Compounds exemplified in Table 6 were tested and found to have IC50s in the following ranges: A: >10 μM; B: <10 μM; C: <1 μM using the fluorescence polarization assay, as shown in Table 5. Each of the IC50s was calculated from Graph Pad.
In general terms: Fluorescence polarisation rises when a labelled molecule tumbles more slowly, as on binding a larger partner.

The next assay deals with T2, GST-XIAP BIR3RING (Homo sapiens, UniProt P98170).
T2 construct: made in house; host or cells: E. coli DH5-alpha
T2 sequence (P98170 246-497): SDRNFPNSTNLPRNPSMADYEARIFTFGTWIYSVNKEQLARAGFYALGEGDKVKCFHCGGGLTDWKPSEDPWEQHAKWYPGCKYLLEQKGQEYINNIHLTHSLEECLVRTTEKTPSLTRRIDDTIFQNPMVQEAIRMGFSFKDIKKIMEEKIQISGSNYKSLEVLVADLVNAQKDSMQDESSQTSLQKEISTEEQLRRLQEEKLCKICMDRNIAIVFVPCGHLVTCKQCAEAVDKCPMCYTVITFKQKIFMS
In words: Fluorescence polarization-based competition assay, XIAP Bir3-RING. On the procedure:
GST-XIAP BIR3RING: XIAP coding sequence amino acids 246-497 cloned into PGEX2T1 via BamH1 and AVA I. The plasmid was transformed into E. coli DH5α for use in protein expression and purification.
as §1, §2, §3, §4

The next assay has as its target T3, GST-HIAP2 (cIAP-1) BIR 3 (Homo sapiens, UniProt Q13490).
T3 construct: made in house; host or cells: E. coli DH5-alpha
As to the kind of experiment: Fluorescence polarization-based competition assay, cIAP-1 Bir3. On the procedure: GST-HIAP2 (cIAP-1) BIR 3: HIAP2 coding sequence from amino acids 251-363 cloned into PGex4T3 via BamH1 and XhoI. The plasmid was transformed into E. coli DH5α for use in protein expression and purification.
as §1, §2, §3, §4

T3 sequence (Q13490 251-363): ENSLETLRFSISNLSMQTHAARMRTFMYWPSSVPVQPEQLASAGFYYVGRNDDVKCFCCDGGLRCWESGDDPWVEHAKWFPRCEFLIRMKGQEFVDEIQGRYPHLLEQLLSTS
T1 sequence (Q13489 236-349): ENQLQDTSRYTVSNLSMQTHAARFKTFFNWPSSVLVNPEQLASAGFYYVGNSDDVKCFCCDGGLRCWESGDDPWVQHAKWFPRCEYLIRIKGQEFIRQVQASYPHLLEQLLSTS

As for `CN[C@@H](C)C(=O)N[C@H](C(=O)N1CCC[C@H]1CN(CCc1ccccc1)C(=O)[C@@H](C)N)C(C)(C)C` [Compound 36], the figures for the IC50 on GST-HIAP1(cIAP-2) BIR 3, at GST-XIAP BIR3RING and at GST-HIAP2 (cIAP-1) BIR 3 were less than 1000 nM, less than 10000 nM and less than 1000 nM, respectively.
Consider `CN[C@@H](C)C(=O)N[C@H](C(=O)N1CCC[C@H]1CN(CCc1ccccc1)C(=O)[C@H](C)N)C(C)(C)C` [Compound 37], for which the IC50 on GST-HIAP1(cIAP-2) BIR 3, at GST-XIAP BIR3RING and on GST-HIAP2 (cIAP-1) BIR 3 was less than 1000 nM each time.
Regarding `CN[C@@H](C)C(=O)N[C@H](C(=O)N1CCC[C@H]1CN(CCc1ccccc1)C(=O)CN(C)C)C(C)(C)C` [Compound 38], the IC50 at GST-HIAP1(cIAP-2) BIR 3, at GST-XIAP BIR3RING and on GST-HIAP2 (cIAP-1) BIR 3 was less than 1000 nM each time.
As to `CC[C@H](N)C(=O)N(CCc1ccccc1)C[C@@H]1CCCN1C(=O)[C@@H](NC(=O)[C@H](C)NC)C(C)(C)C` [Compound 39], the IC50 at GST-HIAP1(cIAP-2) BIR 3, on GST-XIAP BIR3RING and at GST-HIAP2 (cIAP-1) BIR 3 was less than 1000 nM in each case.
As for `CN[C@@H](C)C(=O)N[C@H](C(=O)N1CCC[C@H]1CN(CCc1ccccc1)C(=O)CNc1ccccc1)C(C)(C)C` [Compound 40], the IC50 at GST-HIAP1(cIAP-2) BIR 3, at GST-XIAP BIR3RING and on GST-HIAP2 (cIAP-1) BIR 3 was less than 1000 nM in each case.
For the compound `CN[C@@H](C)C(=O)N[C@H](C(=O)N1CCC[C@H]1CN(CCc1ccccc1)C(=O)CCCN)C(C)(C)C` [Compound 41], the IC50 (in general, the concentration that inhibits the measured activity by half) was less than 1000 nM on GST-HIAP1(cIAP-2) BIR 3, less than 10000 nM on GST-XIAP BIR3RING and less than 1000 nM at GST-HIAP2 (cIAP-1) BIR 3.
As to `CN[C@@H](C)C(=O)N[C@H](C(=O)N1CCC[C@H]1CN(CCc1ccccc1)C(=O)CNC(C)=O)C(C)(C)C` [Compound 43], the IC50 at GST-HIAP1(cIAP-2) BIR 3, on GST-XIAP BIR3RING and on GST-HIAP2 (cIAP-1) BIR 3 was less than 1000 nM in each case.
With `CC[C@@H](N)C(=O)N(CCc1ccccc1)C[C@@H]1CCCN1C(=O)[C@@H](NC(=O)[C@H](C)NC)C(C)(C)C` [Compound 46], the IC50 at GST-HIAP1(cIAP-2) BIR 3, on GST-XIAP BIR3RING and on GST-HIAP2 (cIAP-1) BIR 3 was less than 1000 nM throughout.
For `CN[C@@H](C)C(=O)N[C@H](C(=O)N1CCC[C@H]1CN(CCc1ccccc1)C(=O)c1ccccc1)C(C)(C)C` [Compound 47], the concentration for half-maximal inhibition (IC50) on GST-HIAP1(cIAP-2) BIR 3, on GST-XIAP BIR3RING and at GST-HIAP2 (cIAP-1) BIR 3 was less than 1000 nM each time.
With `CN[C@@H](C)C(=O)N[C@@H](CCCN)C(=O)N1CCC[C@H]1CN(CCc1ccccc1)C(=O)CCc1ccccc1` [Compound 49], the half-inhibitory concentration (IC50) at GST-HIAP1(cIAP-2) BIR 3, on GST-XIAP BIR3RING and on GST-HIAP2 (cIAP-1) BIR 3 was less than 1000 nM throughout.
Take `CN[C@@H](C)C(=O)N[C@H](C(=O)N1CCC[C@H]1CN(CCc1ccccc1)C(=O)[C@H]1CCCN1)C(C)(C)C` [Compound 50]: the IC50 on GST-HIAP1(cIAP-2) BIR 3, at GST-XIAP BIR3RING and on GST-HIAP2 (cIAP-1) BIR 3 was less than 1000 nM each time.
Consider `CN[C@@H](C)C(=O)N[C@H](C(=O)N1CCC[C@H]1CN(CCc1ccccc1)C(=O)[C@@H]1CCCN1)C(C)(C)C` [Compound 51], for which the concentration for half-maximal inhibition (IC50) on GST-HIAP1(cIAP-2) BIR 3, on GST-XIAP BIR3RING and on GST-HIAP2 (cIAP-1) BIR 3 was less than 1000 nM throughout.
On to `CN[C@@H](C)C(=O)N[C@H](C(=O)N1CCC[C@H]1CN(CCc1ccccc1)C(=O)[C@H](N)Cc1ccc(OC)cc1)C(C)(C)C` [Compound 54], for which the IC50 at GST-HIAP1(cIAP-2) BIR 3, at GST-XIAP BIR3RING and at GST-HIAP2 (cIAP-1) BIR 3 was less than 1000 nM each time.
With `CN[C@@H](C)C(=O)N[C@H](C(=O)N1CCC[C@H]1CN(CCc1ccccc1)C(=O)[C@H](N)Cc1cccnc1)C(C)(C)C` [Compound 55], the IC50 on GST-HIAP1(cIAP-2) BIR 3, at GST-XIAP BIR3RING and on GST-HIAP2 (cIAP-1) BIR 3 was less than 1000 nM throughout.
For the compound `CN[C@@H](C)C(=O)N[C@H](C(=O)N1CCC[C@H]1CN(CCc1ccccc1)C(=O)[C@H](N)Cc1ccncc1)C(C)(C)C` [Compound 56], the IC50 at GST-HIAP1(cIAP-2) BIR 3, at GST-XIAP BIR3RING and on GST-HIAP2 (cIAP-1) BIR 3 was less than 1000 nM in each case.
As for `CN[C@@H](C)C(=O)N[C@H](C(=O)N1CCC[C@H]1CN(CCc1ccccc1)C(=O)Cc1ccccc1)C(C)(C)C` [Compound 57], the IC50 on GST-HIAP1(cIAP-2) BIR 3, on GST-XIAP BIR3RING and on GST-HIAP2 (cIAP-1) BIR 3 was less than 1000 nM in each case.
On to `CN[C@@H](C)C(=O)N[C@H](C(=O)N1CCC[C@H]1CN(CCc1ccccc1)C(=O)[C@H](N)CCc1ccccc1)C(C)(C)C` [Compound 58], for which the concentration for half-maximal inhibition (IC50) on GST-HIAP1(cIAP-2) BIR 3 is less than 1000 nM; on GST-XIAP BIR3RING, less than 10000 nM; on GST-HIAP2 (cIAP-1) BIR 3 it was less than 1000 nM.
With `CN[C@@H](C)C(=O)N[C@H](C(=O)N1CCC[C@H]1CN(C[C@@H](C)c1ccccc1)C(=O)OCc1ccccc1)C(C)(C)C` [Compound 59], the IC50 on GST-HIAP1(cIAP-2) BIR 3, at GST-XIAP BIR3RING and on GST-HIAP2 (cIAP-1) BIR 3 was less than 1000 nM each time.
`CN[C@@H](C)C(=O)N[C@H](C(=O)N1CCC[C@H]1CN(C[C@H](C)c1ccccc1)C(=O)OCc1ccccc1)C(C)(C)C` [Compound 60]: the IC50 was less than 10000 nM at GST-HIAP1(cIAP-2) BIR 3, less than 1000 nM on GST-XIAP BIR3RING and less than 1000 nM on GST-HIAP2 (cIAP-1) BIR 3.
As for `C#CCOC[C@H](NC(=O)[C@@H](N)CO)C(=O)N1CCC[C@H]1CN(CCc1ccccc1)C(=O)C(F)(F)F` [Compound 61], the IC50 on GST-HIAP1(cIAP-2) BIR 3, at GST-XIAP BIR3RING and on GST-HIAP2 (cIAP-1) BIR 3 was less than 1000 nM throughout.
On to `CC(C)[C@H](NC(=O)[C@H](C)N)C(=O)N1CCC[C@H]1COCc1ccccc1` [Compound 63], for which the half-maximal inhibitory concentration (IC50) at GST-HIAP1(cIAP-2) BIR 3 is greater than 10000 nM; on GST-XIAP BIR3RING, less than 10000 nM; at GST-HIAP2 (cIAP-1) BIR 3, less than 10000 nM.
Regarding `C[C@H](N)C(=O)N[C@H](C(=O)N1CCC[C@H]1COCc1ccccc1)C(C)(C)C` [Compound 64], the IC50 on GST-HIAP1(cIAP-2) BIR 3, at GST-XIAP BIR3RING and at GST-HIAP2 (cIAP-1) BIR 3 was less than 10000 nM throughout.
As to `CC(C)[C@H](NC(=O)[C@H](C)N)C(=O)N1CCC[C@H]1CN(CCCCOC(=O)c1ccccc1)CCc1ccccc1` [Compound 65], the concentration for half-maximal inhibition (IC50) on GST-HIAP1(cIAP-2) BIR 3, on GST-XIAP BIR3RING and at GST-HIAP2 (cIAP-1) BIR 3 was less than 1000 nM in each case.
For `CC(C)[C@H](NC(=O)[C@H](C)N)C(=O)N1CCC[C@H]1CSCCc1ccccc1` [Compound 66], the IC50 at GST-HIAP1(cIAP-2) BIR 3, on GST-XIAP BIR3RING and on GST-HIAP2 (cIAP-1) BIR 3 was less than 10000 nM each time.
With `CC(C)[C@H](NC(=O)[C@H](C)N)C(=O)N1CCC[C@H]1CS(=O)(=O)CCc1ccccc1` [Compound 67], the IC50 on GST-HIAP1(cIAP-2) BIR 3 was less than 10000 nM; at GST-XIAP BIR3RING it was greater than 10000 nM; at GST-HIAP2 (cIAP-1) BIR 3 it was less than 10000 nM.
Consider `CN[C@@H](C)C(=O)N[C@H](C(=O)N1CCC[C@H]1CN(CCc1ccccc1)S(=O)(=O)Cc1ccccc1)C(C)(C)C` [Compound 68], for which the concentration for half-maximal inhibition (IC50) on GST-HIAP1(cIAP-2) BIR 3, at GST-XIAP BIR3RING and on GST-HIAP2 (cIAP-1) BIR 3 was less than 1000 nM each time.
On to `CN[C@@H](C)C(=O)N[C@H](C(=O)N1CCC[C@H]1CN(CCc1ccccc1)S(=O)(=O)c1ccccc1)C(C)(C)C` [Compound 69], for which the IC50 at GST-HIAP1(cIAP-2) BIR 3, on GST-XIAP BIR3RING and at GST-HIAP2 (cIAP-1) BIR 3 was less than 1000 nM each time.
